{
  "source": "patent US11426394B2",
  "about": "“Method to prevent and treat macular degeneration by calcium channel blockers, angiotensin converting enzyme inhibitors, and angiotensin receptor blockers” (priority 2018, dated 2022)",
  "key": {"[1]": {"conditions": "in vivo; cited from earlier work"}, "Macular Degeneration": {"tested_on": "Macular Degeneration", "conditions": "chronic use; cited from earlier work"}, "wet macular degeneration": {"tested_on": "wet macular degeneration", "assay": "Patient with wet macular degeneration: one eye treated, other eye left untreated", "format": "in vivo, human", "from_the_text": "(§1) A patient is diagnosed with wet macular degeneration. A composition comprising the calcium channel blocker nifedipine is directly applied to the vitreous surface of one eye while the other eye is left untreated. […] A patient is diagnosed with wet macular degeneration. A composition comprising the ACE inhibitor enalapril is directly applied to the vitreous surface of one eye while the other eye is left untreated. […] A patient is diagnosed with wet macular degeneration. A composition comprising the angiotensin receptor blocker losartan is directly applied to the vitreous surface of one eye while the other eye is left untreated. […] A patient is diagnosed with wet macular degeneration. A composition comprising the calcium channel blocker nifedipine is directly injected into the intraocular space of one eye while the other eye is left untreated. […] A patient is diagnosed with wet macular degeneration. A composition comprising the ACE inhibitor enalapril is directly injected into the intraocular space of one eye while the other eye is left untreated. […] A patient is diagnosed with wet macular degeneration. A composition comprising the angiotensin receptor blocker losartan is directly injected into the intraocular space of one eye while the other eye is left untreated."}, "dry macular degeneration": {"tested_on": "dry macular degeneration", "assay": "Patient with dry macular degeneration: one eye treated, other eye left untreated", "format": "in vivo, human", "from_the_text": "as §1, with “dry” for “wet”"}, "[2]": {"conditions": "composition directly applied to the vitreous surface of one eye"}, "[3]": {"conditions": "composition directly injected into the intraocular space of one eye"}},
  "data": [
    {"compound": "CC1=C(/C=C/C(C)=C/C=C/C(C)=C/C=C/C=C(C)/C=C/C=C(C)/C=C/C2=C(C)CCCC2(C)C)C(C)(C)CCC1", "note": "[Beta carotene, beta carotene]", "values": [
      {"measurement": "lung cancer", "setting": "[1]", "value": "increase lung cancer"}
    ]},
    {"compound": "CC(=O)Oc1ccccc1C(=O)O", "note": "[aspirin]", "values": [
      {"measurement": "association with Macular Degeneration", "setting": "Macular Degeneration", "value": "increase in Macular Degeneration"}
    ]},
    {"compound": "CCOC(=O)[C@H](CCc1ccccc1)N[C@@H](C)C(=O)N1CCC[C@H]1C(=O)O", "note": "[enalapril]", "values": [
      {"measurement": "symptoms of wet macular degeneration, treated eye versus untreated eye", "setting": "wet macular degeneration; [2]", "value": "reduced symptoms of wet macular degeneration"},
      {"measurement": "symptoms of wet macular degeneration, treated eye versus untreated eye", "setting": "wet macular degeneration; [3]", "value": "reduced symptoms of wet macular degeneration"},
      {"measurement": "symptoms of dry macular degeneration, treated eye versus untreated eye", "setting": "dry macular degeneration; [2]", "value": "reduced symptoms of dry macular degeneration"},
      {"measurement": "symptoms of dry macular degeneration, treated eye versus untreated eye", "setting": "dry macular degeneration; [3]", "value": "reduced symptoms of dry macular degeneration"}
    ]},
    {"compound": "CCCCc1nc(Cl)c(CO)n1Cc1ccc(-c2ccccc2-c2nn[nH]n2)cc1", "note": "[losartan]", "values": [
      {"measurement": "symptoms of wet macular degeneration, treated eye versus untreated eye", "setting": "wet macular degeneration; [2]", "value": "reduced symptoms of wet macular degeneration"},
      {"measurement": "symptoms of wet macular degeneration, treated eye versus untreated eye", "setting": "wet macular degeneration; [3]", "value": "reduced symptoms of wet macular degeneration"},
      {"measurement": "symptoms of dry macular degeneration, treated eye versus untreated eye", "setting": "dry macular degeneration; [2]", "value": "reduced symptoms of dry macular degeneration"},
      {"measurement": "symptoms of dry macular degeneration, treated eye versus untreated eye", "setting": "dry macular degeneration; [3]", "value": "reduced symptoms of dry macular degeneration"}
    ]},
    {"compound": "tocopherol", "values": [
      {"measurement": "all-cause mortality", "setting": "[1]", "value": "increase in all-cause mortality"}
    ]}
  ]
}
